The target in the assay is hTRPV3 (Homo sapiens (Human), UniProt Q8NET8). The assay can be described thus: Whole-cell patch clamp, hTRPV3 Phase 1 / Phase 2 currents. The format is cell-based. The procedure, abridged:
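Currents are activated by 20 μM 2-APB or by perfusate at 28 °C or warmer, in Ringer's solution, and quantified at ±80 mV.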
(Patch clamp records ionic current or voltage across a cell membrane.)

[1] abbreviates: Phase 1 current, inward, whole-cell patch clamp, read-out: hTRPV3 Patch P1 Inwd.
The mark [2] stands for this setting: Phase 1 current, read-out: hTRPV3 (nM) (Phase 1).
Where [3] appears, read: Phase 2 current, inward, whole-cell patch clamp, read-out: hTRPV3 Patch P2 Inwd.
Setting [4] is: Phase 2 current, read-out: hTRPV3 (nM) (Phase 2).

Each structure is given as a SMILES string. Read-outs that look alike come from different tables or passages of the source.

hTRPV3, sequence (Q8NET8 whole entry): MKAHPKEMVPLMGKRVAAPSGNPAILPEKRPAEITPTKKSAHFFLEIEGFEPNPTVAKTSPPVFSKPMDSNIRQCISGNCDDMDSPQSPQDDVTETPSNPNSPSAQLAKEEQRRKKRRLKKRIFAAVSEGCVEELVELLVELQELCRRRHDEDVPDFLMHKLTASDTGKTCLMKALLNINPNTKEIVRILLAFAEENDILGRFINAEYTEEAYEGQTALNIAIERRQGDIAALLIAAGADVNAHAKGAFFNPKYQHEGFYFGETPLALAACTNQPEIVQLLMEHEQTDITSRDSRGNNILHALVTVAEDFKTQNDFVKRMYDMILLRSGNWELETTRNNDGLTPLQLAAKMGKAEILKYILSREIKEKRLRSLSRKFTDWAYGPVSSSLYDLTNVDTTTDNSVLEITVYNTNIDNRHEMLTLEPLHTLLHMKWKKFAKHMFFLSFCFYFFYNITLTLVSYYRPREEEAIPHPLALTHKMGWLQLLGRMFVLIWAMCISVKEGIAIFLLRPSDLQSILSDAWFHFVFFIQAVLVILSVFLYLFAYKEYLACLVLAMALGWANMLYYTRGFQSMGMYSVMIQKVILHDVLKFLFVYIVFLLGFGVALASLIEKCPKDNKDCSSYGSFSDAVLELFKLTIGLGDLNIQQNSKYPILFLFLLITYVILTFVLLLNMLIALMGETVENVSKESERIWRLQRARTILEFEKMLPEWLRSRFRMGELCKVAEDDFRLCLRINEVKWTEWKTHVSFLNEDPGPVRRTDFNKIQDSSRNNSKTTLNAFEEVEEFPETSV

As to `Cc1cccnc1O[C@H]1CCN(c2ccc(-c3ccccc3)cc2C(C)O)C1` (stereo partly drawn) [Compound 1-169, 1-(4-((S)-3-(3-methylpyridin-2-yloxy)pyrrolidin-1-yl)biphenyl-3-yl)ethanol], the IC50 is, setting by setting: under setting [1], 100 to 1000 nM; under setting [2], 476 nM; under setting [3], 100 to 1000 nM; under setting [4], 655 nM.

In the case of `OCCCc1cc(-c2ccccc2)ccc1N1CC[C@H](Oc2ncccc2C(F)(F)F)C1` [Compound 1-170, (S)-3-(4-(3-(3-(trifluoromethyl)pyridin-2-yloxy)pyrrolidin-1-yl)biphenyl-3-yl)propan-1-ol], the IC50 by setting is: under setting [3], 100 to 1000 nM; under setting [4], 551 nM.

Regarding `Cc1cccnc1O[C@H]1CCN(c2ccc(-c3ccccc3Cl)cc2C(C)O)C1` (stereo partly drawn) [Compound 1-172, 1-(2′-chloro-4-((S)-3-(3-methylpyridin-2-yloxy)pyrrolidin-1-yl)biphenyl-3-yl)ethanol], the IC50 runs as follows: under setting [1], 100 to 1000 nM; under setting [2], 882 nM.

With `Cc1ccccc1-c1ccc(N2CC[C@H](Oc3ccc(C(F)(F)F)cn3)C2)c(CCCO)c1` [Compound 1-176, (S)-3-(2′-methyl-4-(3-(5-(trifluoromethyl)pyridin-2-yloxy)pyrrolidin-1-yl)biphenyl-3-yl)propan-1-ol], the IC50 was greater than 1000 nM under setting [1], greater than 3200 nM under setting [2], greater than 1000 nM under setting [3] and 2550 nM under setting [4].

Regarding `OCc1csc(-c2cccc(N3CC[C@H](Oc4ccc(C(F)(F)F)cn4)C3)c2)n1` [Compound 1-177], the IC50 under setting [1] is greater than 1000 nM.

Consider `Cc1ccc(O[C@H]2CCN(c3ccc(-c4ccccc4C)nc3CO)C2)nc1` [Compound 1-189, (S)-(3-(3-(5-methylpyridin-2-yloxy)pyrrolidin-1-yl)-6-o-tolylpyridin-2-yl)methanol], for which the IC50 under setting [1] fell in the range of 100 to 1000 nM, the IC50 under setting [2] came to 636 nM, the IC50 under setting [3] is greater than 1000 nM and the IC50 under setting [4] is 1120 nM.

In the case of `Cc1ccc(O[C@H]2CCN(c3ccc(-c4ccccc4C#N)nc3CO)C2)nc1` [Compound 1-190, (S)-2-(6-(hydroxymethyl)-5-(3-(5-methylpyridin-2-yloxy)pyrrolidin-1-yl)pyridin-2-yl)benzonitrile], the IC50 runs as follows: under setting [1], greater than 1000 nM; under setting [2], greater than 3200 nM; under setting [3], greater than 1000 nM; under setting [4], greater than 3200 nM.

Take `COc1ccccc1-c1ccc(N2CC[C@H](Oc3ccc(C)cn3)C2)c(CO)n1` [Compound 1-191, (S)-(6-(2-methoxyphenyl)-3-(3-(5-methylpyridin-2-yloxy)pyrrolidin-1-yl)pyridin-2-yl)methanol]: the IC50 by setting is: under setting [1], greater than 1000 nM; under setting [2], greater than 3200 nM.

As to `Cc1cccnc1O[C@H]1CCN(c2ccc(-c3ccccc3C#N)nc2CO)C1` [Compound 1-192, (S)-2-(6-(hydroxymethyl)-5-(3-(3-methylpyridin-2-yloxy)pyrrolidin-1-yl)pyridin-2-yl)benzonitrile], the IC50 reads like this: under setting [1], greater than 1000 nM; under setting [2], greater than 3200 nM; under setting [3], greater than 1000 nM; under setting [4], roughly 2750 nM.

With `Cc1cccnc1O[C@H]1CCN(c2ccc(-c3ccccc3)cc2CCO)C1` [Compound 1-193, (S)-2-(4-(3-(3-methylpyridin-2-yloxy)pyrrolidin-1-yl)biphenyl-3-yl)ethanol], the IC50 under setting [1] was in the range of 100 to 1000 nM and the IC50 under setting [2] came out at 260 nM.

In the case of `Cc1ccccc1-c1ccc(N2CC[C@H](Oc3ccc(Cl)cn3)C2)c(CO)n1` [Compound 1-195, (S)-(3-(3-(5-chloropyridin-2-yloxy)pyrrolidin-1-yl)-6-o-tolylpyridin-2-yl)methanol], the IC50 runs as follows: under setting [1], 100 to 1000 nM; under setting [2], 106 nM; under setting [3], 10 to 100 nM; under setting [4], 71.3 nM.

As to `CCc1ccccc1-c1ccc(N2CC[C@H](Oc3ccc(C(F)(F)F)cn3)C2)c(CO)n1` [Compound 1-196, (S)-(6-(2-ethylphenyl)-3-(3-(5-(trifluoromethyl)pyridin-2-yloxy)pyrrolidin-1-yl)pyridin-2-yl)methanol], the IC50 runs as follows: under setting [1], greater than 1000 nM; under setting [2], greater than 3200 nM.

`Cc1ccccc1-c1ccc(N2CC[C@H](Oc3ncccc3C)C2)c(CCO)c1` [Compound 1-198, (S)-2-(2′-methyl-4-(3-(3-methylpyridin-2-yloxy)pyrrolidin-1-yl)biphenyl-3-yl)ethanol]: the IC50 is, setting by setting: under setting [1], 100 to 1000 nM; under setting [2], 184 nM.

For the molecule `OCc1nc(Oc2ccccc2)ccc1N1CC[C@H](Oc2ccc(C(F)(F)F)cn2)C1` [Compound 1-199, (S)-(6-phenoxy-3-(3-(5-(trifluoromethyl)pyridin-2-yloxy)pyrrolidin-1-yl)pyridin-2-yl)methanol], the IC50 (hTRPV3 Patch P1 Inwd (nM)) is greater than 1000 nM, the IC50 (hTRPV3 Patch P2 Inwd (nM)) was greater than 1000 nM, the IC50 (read-out: hTRPV3 (nM) (Phase 1)) was greater than 3200 nM and the IC50 (read-out: hTRPV3 (nM) (Phase 2)) was greater than 3200 nM.

Turning to `Cc1ccc(O[C@H]2CCN(c3ccc(-c4ccccc4C)nc3CCO)C2)nc1` [Compound 1-200, (S)-2-(3-(3-(5-methylpyridin-2-yloxy)pyrrolidin-1-yl)-6-o-tolylpyridin-2-yl)ethanol], the IC50 under setting [1] is 100 to 1000 nM and the IC50 under setting [2] stood at 709 nM.

`CCc1ccccc1-c1ccc(N2CC[C@H](Oc3ccc(Cl)cn3)C2)c(CO)n1` [Compound 1-201, (S)-(3-(3-(5-chloropyridin-2-yloxy)pyrrolidin-1-yl)-6-(2-ethylphenyl)pyridin-2-yl)methanol]: the IC50 is greater than 1000 nM under setting [1] and greater than 3200 nM under setting [2].

Take `COc1ccccc1-c1ccc(N2CC[C@H](Oc3ccc(Cl)cn3)C2)c(CO)n1` [Compound 1-202, (S)-(3-(3-(5-chloropyridin-2-yloxy)pyrrolidin-1-yl)-6-(2-methoxyphenyl)pyridin-2-yl)methanol]: the “hTRPV3 (nM) (Phase 1)” value (Phase 1 current) is on record as “Incomplete Block (Phase 1)”.

Take `CCOC(=O)c1nc(-c2ccccc2)sc1N1CC[C@H](Oc2ccc(C(F)(F)F)cn2)C1` [Compound 1-206, (S)-ethyl 2-phenyl-5-(3-(5-(trifluoromethyl)pyridin-2-yloxy)pyrrolidin-1-yl)thiazole-4-carboxylate]: the IC50 was greater than 1000 nM under setting [1] and 2670 nM under setting [2].

For `Cc1ccccc1-c1ccc(N2CC[C@H](Oc3ccc(F)cn3)C2)c(CO)n1` [Compound 1-207, (S)-(3-(3-(5-fluoropyridin-2-yloxy)pyrrolidin-1-yl)-6-o-tolylpyridin-2-yl)methanol], the IC50 was 100 to 1000 nM under setting [1] and 283 nM under setting [2].

With `CCc1ccccc1-c1ccc(N2CC[C@H](Oc3ccc(F)cn3)C2)c(CO)n1` [Compound 1-208], the IC50 reads like this: under setting [1], greater than 1000 nM; under setting [3], 100 to 1000 nM.

For the molecule `N#Cc1ccccc1-c1ccc(N2CC[C@H](Oc3ccc(F)cn3)C2)c(CO)n1` [Compound 1-210, (S)-2-(5-(3-(5-fluoropyridin-2-yloxy)pyrrolidin-1-yl)-6-(hydroxymethyl)pyridin-2-yl)benzonitrile], the IC50 was 100 to 1000 nM under setting [1] and 972 nM under setting [2].

Regarding `Cc1ccc(O[C@H]2CCN(c3ccc(Oc4ccccc4)nc3CO)C2)nc1` [Compound 1-211], the IC50 under setting [1] lay in the range of 100 to 1000 nM, the IC50 under setting [2] was determined as 931 nM, the IC50 under setting [3] lay within 100 to 1000 nM and the IC50 under setting [4] is 936 nM.

Regarding `COc1ccccc1-c1ccc(N2CC[C@H](Oc3ncccc3F)C2)c(CO)n1` [Compound 1-213, (S)-(3-(3-(3-fluoropyridin-2-yloxy)pyrrolidin-1-yl)-6-(2-methoxyphenyl)pyridin-2-yl)methanol], the IC50 by setting is: under setting [1], greater than 1000 nM; under setting [2], 2790 nM.

The record behind these values is US12435061B2 (priority 2020, dated 2025).
